Laboratory results as given in patent US5861388A, “Steroid inhibitors of estrone sulfatase and associated pharmaceutical compositions and methods of use” (SRI International, priority 1997, dated 1999).
pIC50: −log10 of the molar value.

How the values were obtained:
[1] = molecular target: T1, estrone sulfatase (Homo sapiens, UniProt P08842); experiment: Estrone sulfatase assay with intact MCF-7 cells; assay type: cell-based; conditions: concentration giving 50 % inhibition, 24 h, 3H-estrone sulfate substrate
T1 construct: Estrone Sulfatase Assay with Intact Cells; host or cells: MCF-7
T1 sequence (P08842 22-583): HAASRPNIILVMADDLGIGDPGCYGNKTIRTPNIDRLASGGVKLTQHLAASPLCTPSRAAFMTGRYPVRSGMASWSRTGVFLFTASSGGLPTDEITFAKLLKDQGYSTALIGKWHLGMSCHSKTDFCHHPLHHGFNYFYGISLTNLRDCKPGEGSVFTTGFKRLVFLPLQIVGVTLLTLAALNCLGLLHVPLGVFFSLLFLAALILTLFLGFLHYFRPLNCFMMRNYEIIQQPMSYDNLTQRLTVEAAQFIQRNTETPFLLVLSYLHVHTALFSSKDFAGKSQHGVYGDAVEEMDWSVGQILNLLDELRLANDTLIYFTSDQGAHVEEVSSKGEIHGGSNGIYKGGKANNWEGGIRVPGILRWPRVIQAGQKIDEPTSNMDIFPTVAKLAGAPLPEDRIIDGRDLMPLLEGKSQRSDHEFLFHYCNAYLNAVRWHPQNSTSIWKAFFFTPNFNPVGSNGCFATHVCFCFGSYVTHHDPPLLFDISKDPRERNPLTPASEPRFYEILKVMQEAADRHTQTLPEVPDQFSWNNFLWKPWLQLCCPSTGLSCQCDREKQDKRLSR
Description: Test for the Effects of Inhibitors on Estrone Sulfatase Activity in MCF-7 Cells:
Reagents: MCF-7 human breast cancer cells were supplied by the American Type Culture Collection, Rockville, Md. Eagle's minimum essential medium (MEM) and fetal calf serum (FCS) were purchased from Sigma Chemical Company, St. Louis, Mo. [4-^14 C] Estrone, [6,7-^3 H] estradiol and [6,7-^3 H(N)] estrone sulfate were obtained from New England Nuclear Research Products, Boston, Mass.
Estrone Sulfatase Assay with Intact Cells. The procedure of Duncan et al., Cancer Res. 53:298-303 (1993) was followed. MCF-7 cells were seeded in 60×15 mm culture dishes at 1×10^5 cells/dish and maintained in 4.0 mL of MEM containing 2 mM of glutamine and 5% of FCS. The cells were incubated at 37° C. in a 5% CO2 /95% air atmosphere and 100% humidity, with the medium changed every third day. When the cells reach 80% confluency, the intact monolayers were washed once with Earl's balanced salt solution and incubated in 4.0 mL of serum-free MEM containing the substrate (^3 H-estrone sulfate, 7 pmol, 9×10^5 dpm) and inhibitor dissolved in ethanol or ethanol alone. The final ethanol concentration was always be below 1%. The incubation continued for 24 h. 2.0 mL of medium was transferred into separate tubes containing 7×10^3 dpm of ^14 C-estrone. The mixture was vortexed vigorously for 60 s with 5 mL of toluene. After phase separation, 2.0 mL of the organic phase was transferred into a counting vial for scintillation counting. The amount of estrone sulfate hydrolyzed was calculated on the basis of the ^3 H counts obtained, with the added ^14 C-estrone used to correct for recovery through the extraction procedure.
The cells remaining in each culture dish were washed with saline once and then scraped with 1.0 mL of 0.5N NaOH into 10×75 mm tubes. The cell pellets in each tube were incubated at 50° C. for 20 min. to ensure that digestion was complete and that all proteins became soluble. An aliquot was then taken for protein determination by Lowry's method (Lowry et al., J. Biol. Chem. 193:265-275 (1951)).
The amount of estrone sulfate hydrolyzed with the inhibitor relative to that without the inhibitor was evaluated to give the percentage of inhibition.

[2] = system: MCF-7 human breast carcinoma xenografts; experiment: Tumor growth inhibition assay, MCF-7 human breast carcinoma xenografts in athymic mice; assay type: in vivo, human MCF-7 xenografts in female BALB/c athymic mice; conditions: i.p. 1.0 mg/mouse/day for 5 weeks, mean ± S.E.
Description: In Vivo Efficacy Studies Using MCF-7 Cells in Nude Mice: For in vivo evaluation, human xenografts were used in nude (athymic) mice, in the context of a solid tumor assay. MCF-7 human breast carcinomas in nude mice were used as the model for evaluating the estrone sulfatase inhibitors. The protocol followed was essentially that of Yue et al., J. Steroid Biochem. 44:671-673 (1993). Because MCF-7 cells are known to require supplementation with estradiol to sustain progressive growth in athymic nude mice (Soule et al., Cancer Lett. 10:177-189 (1980)), estrone sulfate was used for supplemental estrogen in the model studies. The enzyme inhibitors were administered by intravenous injection, oral gavage, and intraperitoneal administration, and comparative efficacy of the various compounds were evaluated using these different routes. Female BALB/c athymic mice 4-6 weeks of age were supplied by Charles River Breeding Laboratories, Boston, Mass. MCF-7 cells for the in vitro cell growth inhibition assay were obtained from the American Type Culture Collection, Rockville, Md., and cultured under the same conditions as described above for the sulfatase assay. Tumor Growth Inhibition Assay (see […] et al. (1990), supra, Yue et al., supra, and Noel et al., Biochem. Pharmacol. 43:1263-1267 (1992): The athymic mice were housed five per cage in controlled conditions of light and humidity and received food and water ad libitum throughout the entire experiment. The mice were quarantined for three working days before use in experiments. Prior to the initiation of the antitumor experiments, the mice were housed for seven days to familiarize them with the experimental environment. Temperature was maintained at 72±5° F., with relative humidity at 35-70% and a 12-h light/dark cycle. The mice were fed certified Purina rodent chow and drinking water ad libitum. The source water was recirculated, deionized, UV-treated, and filtered (5-μm filter). At the beginning of the experiment, all but five of the mice underwent oophorectomies to eliminate the endogenous level of estrogen. After all animals recovered from surgery, all mice in the study received 5 μmol of estrone sulfate daily via gavage or subcutaneous (sc) injection. The dosing of estrone sulfate was carried out throughout the entire experiment. Seven days after the animals began treatment with estrone sulfate, each mouse was be injected sc twice (once in each flank) with 2.5×10^6 MCF-7 cells suspended in 0.1 mL of serum-free tissue culture medium to induce tumor growth. The growth rate was determined by measuring the tumors with calipers weekly. Tumor volumes were calculated according to the formula 4/3πr1^2,r2, where r1 and r2 represent the tumor radii. When the average tumor volume per mouse reached approximately 200 mm^3, animals began to receive various doses of estrone sulfatase inhibitors dissolved in 0.1 mL of phosphate buffered saline (PBS). Dosing was by oral gavage, intravenous injection, and intraperitoneal injection; daily dosing with estrone sulfatase inhibitors was continued throughout the remainder of the experiment. The estrone sulfatase inhibitors not soluble in aqueous solutions were dissolved in EtOH first and diluted with PBS to obtain the appropriate concentrations of inhibitor but keeping the concentration of EtOH below 1%. For each test compound, the mice were divided into several groups with five animals in each group. These groups were as follows: intact control group receiving PBS alone; oophorectomized control group receiving PBS alone; and oophorectomized treatment groups receiving various doses of estrone sulfatase inhibitors. […] The change in tumor volume in the treatment groups relative to that in the oophorectomized control group gave the percent inhibition of a given inhibitor.

Row | Compound | pIC50 [1] | other results
1 | CC(=O)O[C@H]1CC[C@H]2[C@@H]3CCc4cc5c(cc4[C@H]3CC[C@]12C)C=NS(=O)(=O)O5 [Compound 4, 17β-acetoxyestra-1,3,5(10)-trieno-[3,2,e]-1',2',3'-oxathiazine-2',2'-dioxide] | 7.92 | 
2 | C[C@]12CC[C@@H]3c4cc5c(cc4CC[C@H]3[C@@H]1CCC2=O)OS(=O)(=O)N=C5 [Compound 6, Estra-1,3,5(10)-trien-17-ono-[3,2,e]-1',2',3'-oxathiazine-2',2'-dioxide] | 8.03 | Tumor Volume, week 0 ([2]; week 0, control 96.5 ± 5.2): 133.6 ± 15.9 mm^3; Tumor Volume, week 1 ([2]; week 1, control 184.1 ± 26.3): 185.8 ± 16.5 mm^3; Tumor Volume, week 2 ([2]; week 2, control 191.2 ± 36.1): 191.3 ± 25.1 mm^3; Tumor Volume, week 3 ([2]; week 3, control 232.9 ± 46.4): 181.8 ± 27.8 mm^3; Tumor Volume, week 4 ([2]; week 4, control 299.5 ± 54.3): 234.0 ± 50.7 mm^3; Tumor Volume, week 5 ([2]; week 5, control 349.0 ± 46.2): 285.8 ± 47.7 mm^3
3 | C[C@]12CC[C@@H]3c4cc5c(cc4CC[C@H]3[C@@H]1CC[C@@H]2O)OS(=O)(=O)N=C5 [Compound 10, 17β-hydroxyestra-1,3,5(10)-trieno-[3,2,e]-1',2',3'-oxathiazine-2',2'-dioxide] | 7.70 | 
4 | C[C@]12CC[C@@H]3c4cc5c(cc4CC[C@H]3[C@@H]1CC[C@@H]2O)OS(=O)(=O)NC5 [Compound 11, 17β-Hydroxyestra-1,3,5(10)-trieno-[3,2,e]-3',4'-dihydro-1',2',3'-oxathiazine-2',2'-dioxide] | 6.09 | 
5 | C[C@]12CC[C@@H]3c4ccc5c(c4CC[C@H]3[C@@H]1CCC2=O)C=NS(=O)(=O)O5 [Compound 13, estra-1,3,5(10)-trien-17-ono-[3,4,e]-1',2',3'-oxathiazine-2',2'-dioxide] | 7.36 | 
6 | C[C@]12CC[C@@H]3c4ccc5c(c4CC[C@H]3[C@@H]1CC[C@@H]2O)CNS(=O)(=O)O5 [Compound 14, 17β-Hydroxyestra-1,3,5(10)-trieno-[3,4,e]-3',4'-dihydro-1',2',3'-oxathiazine-2',2'-dioxide] | 4.82 | 
7 | CC[C@H]1CC[C@H]2[C@@H]3CCc4cc5c(cc4[C@H]3CC[C@]12C)C=NS(=O)(=O)O5 [Compound 17, 19-norpregna-1,3,5(10)-trieno-[3,2,e]-1',2',3'-oxathiazine-2',2'-dioxide] | 7.30 | 
8 | C=C1CC[C@H]2[C@@H]3CCc4cc5c(cc4[C@H]3CC[C@]12C)C=NS(=O)(=O)O5 [Compound 30, 17-methyleneestra-1,3,5(10)-trieno-[3,2,e]-1',2',3'-oxathiazine-2',2'-dioxide] | 7.14 | 
9 | C/C=C1/CC[C@H]2[C@@H]3CCc4cc5c(cc4[C@H]3CC[C@]12C)C=NS(=O)(=O)O5 [Compound 31, [17(20)Z]-norpregna-1,3,5(10),17(20)-tetraeno-[3,2,e]-1',2',3'-oxathiazine-2',2'-dioxide] | 7.20 | 
10 | CC/C=C1/CC[C@H]2[C@@H]3CCc4cc5c(cc4[C@H]3CC[C@]12C)C=NS(=O)(=O)O5 [Compound 32, [17(20)Z]-Propylideneestra-1,3,5(10)-trieno-[3,2,e]-1',2',3'-oxathiazine-2',2'-dioxide] | 7.24 | 
11 | CCC/C=C1/CC[C@H]2[C@@H]3CCc4cc5c(cc4[C@H]3CC[C@]12C)C=NS(=O)(=O)O5 [Compound 33, [17(20)Z]-19,21-dinorchola-1,3,5(10),17(20)-tetraeno-[3,2,e]-1',2',3'-oxathiazine-2',2'-dioxide] | 6.14 | 
12 | C[C@H]1CC[C@H]2[C@@H]3CCc4cc5c(cc4[C@H]3CC[C@]12C)C=NS(=O)(=O)O5 [Compound 34, 17β-methylestra-1,3,5(10)-trieno-[3,2,e]-1',2',3'-oxathiazine-2',2'-dioxide] | 7.35 | 
13 | CCC[C@H]1CC[C@H]2[C@@H]3CCc4cc5c(cc4[C@H]3CC[C@]12C)C=NS(=O)(=O)O5 [Compound 35, 17β-Propylestra-1,3,5(10)-trieno-[3,2,e]-1',2',3'-oxathiazine-2',2'-dioxide] | 6.92 | 
14 | CCCC[C@H]1CC[C@H]2[C@@H]3CCc4cc5c(cc4[C@H]3CC[C@]12C)C=NS(=O)(=O)O5 [Compound 36, 17β-19,21-dinorchola-1,3,5(10)-trieno-[3,2,e]-1',2',3'-oxathiazine-2',2'-dioxide] | 6.23 | 
15 | C=C=C1CC[C@H]2[C@@H]3CCc4cc5c(cc4[C@H]3CC[C@]12C)C=NS(=O)(=O)O5 [Compound 40, 19-Norpregna-1,3,5(10),17(20),20-pentaeno-[3,2,e]-1',2',3'-oxathiazine-2',2'-dioxide] | 7.13 | 
16 | CO[C@H]1CC[C@H]2[C@@H]3CCc4cc5c(cc4[C@H]3CC[C@]12C)C=NS(=O)(=O)O5 [Compound 43, 17β-methoxyestra-1,3,5(10)-trieno-[3,2,e]-1',2',3'-oxathiazine-2',2'-dioxide] | 7.30 | 
